pIC50: −log10 of the molar value. Read-outs that look alike come from different tables or passages of the source.
Key:
A549 cells = experiment: Cell proliferation PAD assay, A549; format: cell-based; conditions: Homo sapiens, 48 hours
Experimental: (§1) Cell lines used are available from American Type Culture Collection (ATCC), for example, cell cultures containing A549 (ATCC# CCL-185), HeLa (ATCC# CCL-2), HCT116 ATTC# CCL-247), and H1299 (ATCC# CRL-5803) cells were maintained in T175 flasks following the ATCC recommended media and handling procedures. […] A 20,000 cells/ml solution was made for plating. Cells were plated in black Packard 96 well plates by placing 100 μl per well (2,000 cells per well). […] The definitions of the cell types used are as follows: A549 is lung carcinoma; HI 299 is non-small cell lung carcinoma; HI 155 is non-small cell lung carcinoma; AsPC-1 is pancreatic adenocarcinoma; Caov-3 is ovarian adenocarcinoma; COLO 205 is colorectal adenocarcinoma; DLD-1 colorectal adenocarcinoma; HCT116 is colorectal carcinoma; DU 145 is prostate carcinoma; ES-2 is ovarian clear cell carcinoma; H460 is large cell lung carcinoma; HELA is cervical adenocarcinoma; MIA PaCa-2 is pancreatice carcinoma; OVCAR-3 is ovarian adenocarcinoma; OVCAR8 is ovarian carcinoma; PC3 is prostate adenocarcinoma; SK-OV-3 is ovarian adenocarcinoma; SU86.86 is pancreatic carcinoma; TOV-21G is avarian clear cell carcinoma; U2OS is bone osteosarcoma; is ASPC-I is pancreatic adenocarcinoma; BXPC-3 is pabcreatic adenocarcinoma; HL60 is promyeloblast promyelocytic leukemia; K562 is bone marrow chronic myelogenous leukemia; L1210 is mouse lymphocytic leukemia; MOLT3 is T lymphoblast acute lymphoblastic leukemia; MOLT4 is T lymphoblast acute lymphoblastic leukemia; SW620 is colorectal adenocarcinoma; THP-1 is monocyte acute monocytic leukemia; U937 is histiocytic lymphoma; and UACC-257 is melanoma.
(§2) Compounds and additional media were added 24 hours after cell plating. […] All compound testing was done in duplicate using 6.3 fold dilutions starting with 10 mM. […] Taxol and at least one additional control were run on all plates. Three microliters of the compound master plate were added to deep well blocks containing 750 μl of RPMI media. One hundred microliters were transferred from the compound/media deep well blocks to the plated cells resulting in a 500 fold dilution of the compounds. Cells were grown at 37° C., 5% CO2 for 48 hours.
(§3) Cells to be analyzed by photography were fixed and stained. One hundred microliters of media were removed and 100 μl of 9.3% formamide was added to each well. Plates were left on the benchtop for 45 minutes. A staining solution containing 1.55 μl of 1 mg/ml DAPI added to 18.75 ml PBS was warmed for 15 minutes at 37° C. The cells were aspirated prior to washing with 100 μl of PBS. Seventy microliters of PBS were aspirated and 170 μl of the DAPI solution were added to each well of fixed cells. Plates were left at room temperature for one hour then aspirated and washed twice with 100 μl of PBS. The stained cells were left at 4° C. for a minimum of 16 hours before photographic analysis with Array Scan II (Cellomics). Analysis of the photographic images to determine numbers of live cells (proliferation), apoptotic cells and dead cells, were according to the methods described in U.S. Utility patent application Ser. No. 10/652,440, which incorporated herein in its entirety.

H1299 cells = experiment: Cell proliferation PAD assay, H1299; format: cell-based; conditions: Homo sapiens, 48 hours
Experimental: as §1, §2, §3

[1] = NCI-H1299, 3pt, read-out: H1299 3pt
[2] = NCI-H1299, 6pt, read-out: H1299 6pt

Structure (SMILES) | pIC50 (A549 cells; 3pt, read-out: A549 3pt) | pIC50 (H1299 cells; [1]) | pIC50 (A549 cells; 6pt, read-out: A549 6pt) | pIC50 (H1299 cells; [2])
FC(F)(F)c1ccc(-c2cc(Cl)c3nonc3c2)cc1 [compound 327, 4-Chloro-6-[4-(trifluoromethyl)phenyl]-2,1,3-benzoxadiazole] |  |  | ≤ 4.70 | ≤ 4.70
COc1cccc(-c2cc(Cl)c3nonc3c2)c1 [compound 328, 4-Chloro-6-(3-methoxyphenyl)-2,1,3-benzoxadiazole] |  |  | ≤ 4.70 | ≤ 4.70
O=[N+]([O-])c1ccc(-c2cccc(F)c2)c2nonc12 [compound 320, 7-(3-Fluorophenyl)-4-nitro-2,1,3-benzoxadiazole] |  |  | 4.70 to 6.00 | > 6.00
Cc1cccc(-c2cc(Cl)c3nonc3c2)c1 [compound 326, 4-Chloro-6-(3-methylphenyl)-2,1,3-benzoxadiazole] |  |  | ≤ 4.70 | ≤ 4.70
O=S(=O)(c1cccc2nonc12)N1CCN(c2ncccn2)CC1 [compound 130, 4-[(4-pyrimidin-2-ylpiperazin-1-yl)sulfonyl]-2,1,3-benzoxadiazole] | ≤ 4.70 | ≤ 4.70 |  | 
O=S(=O)(Nc1cccc2nsnc12)c1cccc(Br)c1 [compound 97, N-2,1,3-benzothiadiazol-4-yl-3-bromoberizenesulfonamide] | ≤ 4.70 | ≤ 4.70 |  | 
N#Cc1ccc(N2CCN(S(=O)(=O)c3cccc4nonc34)CC2)nc1 [compound 120, 6-[4-(2,1,3-benzoxadiazol-4-ylsulfonyl)piperazin-1-yl]nicotinonitrile] | ≤ 4.70 | ≤ 4.70 |  | 
Cc1cc(C)cc(-c2cc(Cl)c3nonc3c2)c1 [compound 322, 4-Chloro-6-[3,5-(dimethyl)phenyl]-2,1,3-benzoxadiazole] |  |  | ≤ 4.70 | ≤ 4.70
Cc1cc(C)cc(-c2cc(-c3cc(C)cc(C)c3)c3nonc3c2)c1 [compound 323, 4,6-bis[3,5-(dimethyl)phenyl]-2,1,3-benzoxadiazole] |  |  | ≤ 4.70 | ≤ 4.70
O=S(=O)(Nc1ccc(F)c(Cl)c1)c1cccc2nonc12 [compound 14, N-(3-chloro-4-fluorophenyl)-2,1,3-benzoxadiazole-4-sulfonamide] | ≤ 4.70 | ≤ 4.70 |  | 
O=S(=O)(Nc1cccc2nsnc12)c1ccc(F)c(Cl)c1 [compound 76, N-2,1,3-benzothiadiazol-4-yl-3-chloro-4-fluorobenzenesulfonamide] | ≤ 4.70 | ≤ 4.70 |  | 
O=S(=O)(Nc1ccccc1OC(F)(F)F)c1cccc2nonc12 [compound 67, N[2-(trifluoromethoxy)phenyl]2,1,3-benzoxadiazole-4-sulfonamide] | ≤ 4.70 | ≤ 4.70 |  | 
FC(F)(F)c1cccc(-c2cc(Cl)c3nonc3c2)c1 [compound 325, 4-Chloro-6-[3-(trifluoromethyl)phenyl]-2,1,3-benzoxadiazole] |  |  | ≤ 4.70 | ≤ 4.70
O=S(=O)(Nc1cc(Cl)ccc1Cl)c1cccc2nonc12 [compound 60, N-(2,5-dichlorophenyl)-2,1,3-benzoxadiazole-4-sulfonamide] | ≤ 4.70 | ≤ 4.70 |  | 
COC(=O)c1ccc(C(=O)OC)c(NS(=O)(=O)c2cccc3nonc23)c1 [compound 63, dimethyl 2-[(2,1,3-benzoxadiazol-4-ylsulfonyl)amino]terephthalate] | ≤ 4.70 | ≤ 4.70 |  | 
O=S(=O)(Nc1cccc(F)c1)c1cccc2nonc12 [compound 22, N-(3-fluorophenyl)-2,1,3-benzoxadiazole-4-sulfonamide] | ≤ 4.70 | ≤ 4.70 |  | 
CC(C)(C)c1ccc(-c2cc(Cl)c3nonc3c2)cc1 [compound 329, 4-Chloro-6-(4-(tert-butyl)phenyl)-2,1,3-benzoxadiazole] |  |  | ≤ 4.70 | ≤ 4.70
O=S(=O)(Nc1cccc2nsnc12)c1cc(Cl)c(O)c(Cl)c1 [compound 96, N-2,1,3-benzothiadiazol-4-yl-3,5-dichloro-4-hydroxybenzenesulfonamide] | ≤ 4.70 | ≤ 4.70 |  | 
COc1ccc(NS(=O)(=O)c2cccc3nonc23)cc1 [compound 51, N-(4-methoxyphenyl)-2,1,3-benzoxadiazole-4-sulfonamide] | ≤ 4.70 | ≤ 4.70 |  | 

Next, values leading:

pIC50 (A549 cells; 3pt, read-out: A549 3pt) | pIC50 (H1299 cells; [1]) | pIC50 (A549 cells; 6pt, read-out: A549 6pt) | pIC50 (H1299 cells; [2]) | Structure (SMILES)
≤ 4.70 | ≤ 4.70 |  |  | O=S(=O)(NCCF)c1cccc2nonc12 [compound 59, N-(2-fluoroethyl)-2,1,3-benzoxadiazole-4-sulfonamide]
≤ 4.70 | ≤ 4.70 |  |  | O=S(=O)(NCC1CCCCC1)c1cccc2nonc12 [compound 53, N-(cyclohexylmethyl)-2,1,3-benzoxadiazole-4-sulfonamide]
≤ 4.70 | ≤ 4.70 |  |  | O=S(=O)(Nc1ccccn1)c1cccc2nonc12 [compound 58, N-pyridin-2-yl-2,1,3-benzoxadiazole-4-sulfonamide]
≤ 4.70 | 4.70 to 6.00 |  |  | Cc1ccc(C)c(NS(=O)(=O)c2cccc3nonc23)c1 [compound 21, N-(2,5-dimethylphenyl)-2,1,3-benzoxadiazole-4-sulfonamide]
4.70 to 6.00 | ≤ 4.70 |  |  | O=S(=O)(Nc1cccc(Cl)c1)c1cccc2nonc12 [compound 43, N-(3-chlorophenyl)-2,1,3-benzoxadiazole-4-sulfonamide]
≤ 4.70 | ≤ 4.70 |  |  | O=S(=O)(NCCN1CCCC1)c1cccc2nonc12 [compound 55, N-(2-pyrrolidin-1-ylethyl)-2,1,3-benzoxadiazole-4-sulfonamide]
≤ 4.70 | ≤ 4.70 |  |  | O=S(=O)(NCc1ccccn1)c1cccc2nonc12 [compound 49, N-(pyridin-2-ylmethyl)-2,1,3-benzoxadiazole-4-sulfonamide]
≤ 4.70 | ≤ 4.70 |  |  | COCCNS(=O)(=O)c1cccc2nonc12 [compound 50, N-(2-methoxyethyl)-2,1,3-benzoxadiazole-4-sulfonamide]
≤ 4.70 | ≤ 4.70 |  |  | O=S(=O)(Nc1c(F)cc(F)cc1F)c1cccc2nonc12 [compound 16, N-(2,4,6-trifluorophenyl)-2,1,3-benzoxadiazole-4-sulfonamide]
≤ 4.70 | ≤ 4.70 |  |  | O=S(=O)(c1cccc2nonc12)N1CCN(c2cnccn2)CC1 [compound 131, 4-[(4-pyrazin-2-ylpiperazin-1-yl)sulfonyl]-2,1,3-benzoxadiazole]
≤ 4.70 | ≤ 4.70 |  |  | O=S(=O)(c1cccc2nonc12)N1CCN(CCN2CCOCC2)CC1 [compound 127]
≤ 4.70 | ≤ 4.70 |  |  | Cc1cc(F)ccc1NS(=O)(=O)c1cccc2nonc12 [compound 19, N-(4-fluoro-2-methylphenyl)-2,1,3-benzoxadiazole-4-sulfonamide]
≤ 4.70 | ≤ 4.70 |  |  | N#Cc1cccnc1N1CCN(S(=O)(=O)c2cccc3nonc23)CC1 [compound 119, 2-[4-(2,1,3-benzoxadiazol-4-ylsulfonyl)piperazin-1-yl]nicotinonitrile]
≤ 4.70 | ≤ 4.70 |  |  | O=S(=O)(c1cccc2nonc12)N1CCN(c2ccncc2)CC1 [compound 126, 4-[(4-pyridin-4-ylpiperazin-1-yl)sulfonyl]-2,1,3-benzoxadiazole]
≤ 4.70 | ≤ 4.70 |  |  | O=S(=O)(Nc1cc(Cl)cc(Cl)c1)c1cccc2nonc12 [compound 52, N-(3,5-dichlorophenyl)-2,1,3-benzoxadiazole-4-sulfonamide]
≤ 4.70 | ≤ 4.70 |  |  | O=S(=O)(Nc1ccccc1I)c1cccc2nonc12 [compound 57, N-(2-iodophenyl)-2,1,3-benzoxadiazole-4-sulfonamide]
≤ 4.70 | ≤ 4.70 |  |  | O=S(=O)(Nc1cccc2nsnc12)c1ccc(F)cc1Br [compound 77, N-2,1,3-benzothiadiazol-4-yl-2-bromo-4-fluorobenzenesulfonamide]

Source: patent publication US20050282818A1, “Ubiquitin ligase inhibitors” (Rigel Pharmaceuticals, Inc., priority 2004, published 2005)
